Reference: PubChem BioAssay (NCI)
Several values for one entry are separate records, joined by “and”; a condition that tells them apart may be missing. Equal entries are not always repeated.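 48-hour exposure; five concentrations; linearly interpolated endpoints. GI50 marks 50% less growth. The concentration for full growth arrest is given as TGI.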

Columns and labels:
Experiment in all cases: NCI-60 cell line screen, 48 h
DMS 273 small cell lung = tested on: DMS 273 small cell lung
M19-MEL melanoma = tested on: M19-MEL melanoma
LXFL 529 NSCLC = tested on: LXFL 529 NSCLC
HOP-18 NSCLC = tested on: HOP-18 NSCLC
SNB-78 CNS = tested on: SNB-78 CNS
T-47D breast = tested on: T-47D breast
MCF7 breast = tested on: MCF7 breast
NCI/ADR-RES ovarian = tested on: NCI/ADR-RES ovarian
BT-549 breast = tested on: BT-549 breast
MDA-MB-231 breast = tested on: MDA-MB-231 breast

SMILES	TGI (DMS 273 small cell lung)	TGI (M19-MEL melanoma)	TGI (LXFL 529 NSCLC)	TGI (HOP-18 NSCLC)	TGI (SNB-78 CNS)	other results
COc1cccc(C(=O)O)c1Cc1cccc2ccccc12	> 100 µM	> 100 µM	> 100 µM	> 100 µM	–	–
C/C(=C\c1ccccc1)C(O)S(=O)(=O)O (stereo not given)	> 100 µM	> 100 µM	> 100 µM	> 100 µM	–	–
CC(=O)N1C(=O)C(=O)c2cc(Cl)ccc21	> 100 µM	> 100 µM	> 100 µM	> 100 µM	> 100 µM	–
CN1C(=O)NC2(O)c3ccccc3C(=O)C12O (stereo not given)	–	> 100 µM	> 100 µM	–	> 100 µM	–
CCCC(=O)C(CC)/C(CCC(=O)N(Cc1ccccc1)Cc1ccccc1)=N/NC(=O)C[N+](C)(C)C (stereo not given)	> 100 µM	> 100 µM	> 100 µM	> 100 µM	> 100 µM	–
CCC1N2CCCCC2[C@@H]2c3[nH]c4ccccc4c3CCN12 (stereo not given in full)	> 100 µM	> 100 µM	> 100 µM	> 100 µM	> 100 µM	–
NCC(=O)OCN1C(=O)C2C3C=CC(C2C1=O)C1C2C(=O)N(COC(=O)CN)C(=O)C2C31 (stereo not given)	33.6 µM and 37.3 µM	45.1 µM and 37.9 µM	42.1 µM and > 100 µM	54.4 µM and 73.7 µM	> 100 µM	–
COc1cc(C(C)c2cc3c(cc2OCCOCCOc2cc4c(cc2C(C)c2cc(OC)c(OC)c(OC)c2)OCO4)OCO3)cc(OC)c1OC (stereo not given)	> 10 µM	> 100 µM	> 100 µM	> 10 µM	> 10 µM	GI50 (M19-MEL melanoma): > 100 µM; GI50 (LXFL 529 NSCLC): > 100 µM
C=CCCC12CCCC(=O)C1Sc1ccc3ccccc3c12 (stereo not given)	23.6 µM	> 100 µM	33.2 µM	61.2 µM	60.8 µM	–
CCCCCCCCCCSS(=O)(=O)c1ccc(C)cc1	23 µM	26.6 µM	27.6 µM	43.1 µM	29.5 µM	–
CC(=O)[CH-]C(=O)c1ccccc1.CC(=O)[CH-]C(=O)c1ccccc1.CC(C)CCCC(C)[C@H]1CCC2[C@@H]3CCC4C[C@@H]([O-])CC[C@]4(C)C3CC[C@@]21C.CC(C)CCCC(C)[C@H]1CCC2[C@@H]3CCC4C[C@@H]([O-])CC[C@]4(C)C3CC[C@@]21C.Cl.[Ti+4] (stereo not given in full)	> 25 µM	> 25 µM	> 25 µM	> 25 µM	–	GI50 (DMS 273 small cell lung): > 25 µM; GI50 (M19-MEL melanoma): > 25 µM; GI50 (LXFL 529 NSCLC): > 25 µM; GI50 (HOP-18 NSCLC): > 25 µM
CC(C)[C@H](COC(C)(C)C)N=CN1CSc2ccccc21	37.8 µM	> 100 µM	> 100 µM	–	81.5 µM	–
COc1ccc2c(CCNS(=O)(=O)c3ccccc3)c(C(C)=O)[nH]c2c1[N+](=O)[O-]	> 100 µM	–	> 100 µM	–	> 100 µM	–
COC(=O)/C=C\C1C(C(=O)OC)C2(C(=O)OC)CCC1(C(=O)OC)N2 (stereo not given)	33.9 µM	27.9 µM	19.3 µM	28.9 µM	35.9 µM	–
O=c1c2cc(-c3ccccc3)sc2nc2sc(-c3ccccc3)nn12	> 100 µM	> 100 µM	> 100 µM	> 100 µM	> 100 µM	–
Cc1ccc(S(=O)(=O)NC(C)C(=O)O)cc1 (stereo not given)	> 100 µM	> 100 µM	> 100 µM	> 100 µM	–	–
COC(=O)c1c(C(=O)OC)c(C(=O)OC)c(C(=O)OC)c1C(=O)OC	> 100 µM	–	> 100 µM	> 100 µM	–	–
CCN(CC)CCNc1ccc(CO)c2sc3ccccc3c(=O)c12	–	26.5 µM and 31.6 µM	31.6 µM	29.7 µM and 24.6 µM	35.1 µM and 28.4 µM	GI50 (T-47D breast): 4.84 µM; TGI (T-47D breast): 17.8 µM and 28.6 µM; GI50 (MCF7 breast): 2.21 µM and 4.35 µM and 5.57 µM; TGI (MCF7 breast): 7.55 µM and 17.3 µM and 19.2 µM; GI50 (NCI/ADR-RES ovarian): 2.99 µM and 4.29 µM and 7.25 µM; TGI (NCI/ADR-RES ovarian): 17 µM and 17.3 µM and 21 µM; GI50 (BT-549 breast): 6.99 µM; TGI (BT-549 breast): 21.9 µM and 26.9 µM; GI50 (MDA-MB-231 breast): 4.26 µM and 4.92 µM; TGI (MDA-MB-231 breast): 21.7 µM and 20.6 µM; GI50 (HOP-18 NSCLC): 3.02 µM and 11.4 µM

SMILES	TGI (DMS 273 small cell lung)	TGI (M19-MEL melanoma)	TGI (LXFL 529 NSCLC)	TGI (HOP-18 NSCLC)	TGI (SNB-78 CNS)	other results
C#Cc1cccc(N2C(=O)CC(=P(c3ccccc3)(c3ccccc3)c3ccccc3)C2=O)c1	–	> 100 µM	> 100 µM	–	> 100 µM	–
CN1NC(c2ccccc2)=C(C#N)C(=O)CC1c1ccccc1Cl (stereo not given)	> 100 µM	–	> 100 µM	> 100 µM	> 100 µM	–
CCC(=O)[O-].CCC(=O)[O-].N.N.N.N.[Co+3].[O-][Cl+3]([O-])([O-])[O-]	> 100 µM	–	> 100 µM	–	> 100 µM	GI50 (DMS 273 small cell lung): > 100 µM; GI50 (SNB-78 CNS): > 100 µM; GI50 (LXFL 529 NSCLC): > 100 µM
CC[O+]=c1cccc2ssnc1-2	> 100 µM	> 100 µM	> 100 µM	> 100 µM	> 100 µM	–
O=C(O/N=C1/CCC/C1=C\c1ccccc1)c1ccc(Cl)cc1	> 100 µM	> 100 µM	> 100 µM	> 100 µM	> 100 µM	–
O=C(O)c1cc2c3c(c1)[C@H]1C=CC[C@H]1CN3CC1CC=CC21 (stereo not given in full)	> 100 µM	> 100 µM	> 100 µM	> 100 µM	> 100 µM	–
CC(=O)[CH-]C(=O)c1ccccc1.CC(=O)[CH-]C(=O)c1ccccc1.[O-]c1ccc(O)cc1.[O-]c1ccc(O)cc1.[Ti+4]	–	29.7 µM	25.7 µM	72.2 µM	–	GI50 (M19-MEL melanoma): 14.8 µM; GI50 (LXFL 529 NSCLC): 13 µM; GI50 (HOP-18 NSCLC): 27.1 µM
CC(C)c1cccc2sc(NC(=O)C(=O)CC(=O)c3ccc(F)cc3)nc12	> 100 µM	> 100 µM	> 100 µM	–	> 100 µM	–
COC(=O)/C1=C/C2CC(/C=C(/c3ccccc3)C(=O)O1)C2	53 µM	> 100 µM	–	> 100 µM	–	–
NC(N)=NS(=O)(=O)c1ccc(NC(=O)c2ccc(Cl)c3c(Nc4ccc(S(=O)(=O)N=C(N)N)cc4)c4ccccc4nc23)cc1	> 100 µM	> 100 µM	> 100 µM	> 100 µM	> 100 µM	–
CP(=O)(CCSc1ccccc1)c1ccccc1 (stereo not given)	> 100 µM	> 100 µM	> 100 µM	> 100 µM	> 100 µM	–
N#CC(C(=N/NC(N)=S)/C(=N\NC(N)=S)C(C#N)c1ccccc1)c1ccccc1 (stereo not given)	> 10 µM	> 10 µM	> 10 µM	> 10 µM	> 10 µM	–
[O-]c1c(-c2ccccc2)[se]c(-c2ccccc2)[n+]1-c1ccccc1	37.1 µM	21.3 µM	27.8 µM	25.6 µM	14 µM	–
CC1=C(CC/C(C)=C/CCC2(C)CCC([C@H](C)C(=O)O)OO2)C(C)(C)CCC1 (stereo not given in full) (tested in a mixture with another compound)	> 100 µM	> 100 µM	> 100 µM	–	> 100 µM	–
C=CC1(C)/C(=N\O)C(C)(CC)C(=O)N1O (stereo not given)	> 100 µM	> 100 µM	> 100 µM	> 100 µM	> 100 µM	–
CCC1(c2ccncc2)CCC(=O)NC1=O (stereo not given)	–	> 100 µM	> 100 µM	–	> 100 µM	–
CC(=O)C1C(=O)C(=O)N(c2ccc(Cl)cc2C)C1=O (stereo not given)	–	> 100 µM	> 100 µM	> 100 µM	> 100 µM	–
COc1ccc2c3c([nH]c2c1[N+](=O)[O-])C(C)N(C(=O)/C=C/c1ccccc1)CC3 (stereo not given)	7.77 µM	–	> 100 µM	–	> 100 µM	–
